Values quoted from earlier work, collected in publication PMC10340494, “Sweeteners’ Influence on In Vitro α-Glucosidase Inhibitory Activity, Cytotoxicity, Stability and In Vivo Bioavailability of the Anthocyanins from Lingonberry Jams” (Foods, 2023).

Tests used:
maltase = test system: maltase; design: method as in PMID 18615280
sucrase = test system: sucrase; design: method as in PMID 18615280

Inhibition of maltase (maltase): 35%
Inhibition of sucrase (sucrase): 64%
SMILES: OC[C@H]1O[C@@H](Oc2cc3c(O)cc(O)cc3[o+]c2-c2ccc(O)c(O)c2)[C@H](O)[C@@H](O)[C@H]1O [cyanidin-3-galactoside]
